Experiments:
[1] = target: yCcP (heme and Trp-191 cavity) (Saccharomyces cerevisiae, UniProt P00431); assay: Kinetics of ligand binding to yCcP; set-up: species or system S. cervisiae; settings: for KA2: Trp-191 cavity of yCcP; for KA2 / k4: fit to Eq. 5; for k4: Trp-191 cavity of yCcP/MIM complex
[2] = target: T1, yeast cytochrome c peroxidase (yCcP) (Saccharomyces cerevisiae, UniProt P00431); assay: Equilibrium binding to heme of yCcP by spectrophotometric titration; set-up: species or system S. cervisiae; settings: for KAapp: calculated from best-fit line
T1 sequence (P00431 68-361): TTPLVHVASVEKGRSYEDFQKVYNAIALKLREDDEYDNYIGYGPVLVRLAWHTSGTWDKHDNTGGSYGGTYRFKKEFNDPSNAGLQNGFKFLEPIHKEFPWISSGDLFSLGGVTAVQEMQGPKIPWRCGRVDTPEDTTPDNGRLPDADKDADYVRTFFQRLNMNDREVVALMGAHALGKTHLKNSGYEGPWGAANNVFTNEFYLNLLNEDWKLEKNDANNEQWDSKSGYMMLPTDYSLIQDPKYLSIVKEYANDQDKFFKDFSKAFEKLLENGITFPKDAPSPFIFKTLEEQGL

horse metMb = settings: read-out: KDapp, metMb; pH 7; cited from earlier work
[3] = target: rCcP (heme and Trp-191 cavity) (Saccharomyces cerevisiae, UniProt P00431); assay: Kinetics of ligand binding to rCcP; set-up: species or system baker's yeast; settings: for Time for initial binding phase to be complete: first kinetic phase, manual mixing
CcP(H52L) = CcP(H52L) (Saccharomyces cerevisiae, UniProt P00431, H119L); assay: Equilibrium binding to CcP; set-up: species or system baker's yeast
[4] = target: recombinant cytochrome c peroxidase (rCcP) (Saccharomyces cerevisiae, UniProt P00431); assay: Equilibrium binding to heme of rCcP by spectrophotometric titration; set-up: species or system baker's yeast
[5] = neutral pH; cited from earlier work
[6] = target: Rhodobacter sphaeroides cytochrome c1; settings: read-out: KD, Rhodobacter sphaeroides cytochrome c1 imidazole complex; cited from earlier work
[7] = target: R. capsulatus cytochrome c2(M96N); settings: read-out: KD, R. capsulatus cytochrome c2(M96N) imidazole complex; cited from earlier work
cytochrome P450CAM = settings: read-out: KD, cytochrome P450CAM imidazole complex; cited from earlier work
[8] = ionization of free imidazole; cited from earlier work
sperm whale metMb = settings: cited from earlier work
CcP(W191G) = settings: read-out: Apparent KD, CcP(W191G)/imidazole complex; cited from earlier work
horse cytochrome c = settings: read-out: KD, horse cytochrome c imidazole complex; cited from earlier work
nitric oxide synthase = settings: read-out: KD, nitric oxide synthase imidazole complex; cited from earlier work
[9] = tested on: horseradish peroxidase (HRP); settings: pH 9.3; cited from earlier work
[10] = target: Chironomus plumosus metHb; settings: read-out: KD, Chironomus plumosus metHb imidazole complex; cited from earlier work
[11] = pH 7.0, biphasic imidazole titration
[12] = 8.76 μM rCcP, 3.15 M imidazole, pH 7.0

Chain of CcP(H52L) (P00431 68-361 H119L): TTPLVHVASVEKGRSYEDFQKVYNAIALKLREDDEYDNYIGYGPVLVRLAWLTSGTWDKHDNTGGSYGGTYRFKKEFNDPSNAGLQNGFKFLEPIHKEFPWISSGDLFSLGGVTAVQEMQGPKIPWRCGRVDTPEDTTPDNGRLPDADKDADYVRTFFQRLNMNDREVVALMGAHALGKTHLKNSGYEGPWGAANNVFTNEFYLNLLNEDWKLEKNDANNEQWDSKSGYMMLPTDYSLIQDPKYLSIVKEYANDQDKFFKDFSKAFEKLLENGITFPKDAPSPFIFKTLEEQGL

Cn1ccnc1 [1-Methylimidazole, 1-methylimidazole]
Kd [1]: 5 ± 2 mM
KA2 ([1]; pH 4.1): (2.94 ± 0.28) × 10^2 M^−1
KA2 ([1]; pH 4.5): (9.19 ± 0.52) × 10^1 M^−1
KA2 ([1]; pH 5.0): (1.74 ± 0.17) × 10^2 M^−1
KA2 ([1]; pH 5.5): (1.73 ± 0.35) × 10^2 M^−1
KA2 ([1]; pH 6.0): (2.64 ± 0.18) × 10^2 M^−1
KA2 ([1]; pH 6.5): (2.13 ± 0.27) × 10^2 M^−1
KA2 ([1]; pH 7.0): (2.13 ± 0.81) × 10^3 M^−1
KA2 ([1]; pH 7.5): (4.52 ± 5.10) × 10^3 M^−1
k4 ([1]; pH 4.1): (1.55 ± 0.08) × 10^−1 M^−1 s^−1
k4 ([1]; pH 4.5): (2.49 ± 0.16) × 10^−2 M^−1 s^−1
k4 ([1]; pH 5.0): (2.72 ± 0.35) × 10^−2 M^−1 s^−1
k4 ([1]; pH 5.5): (1.14 ± 0.03) × 10^−2 M^−1 s^−1
k4 ([1]; pH 6.0): (1.60 ± 0.03) × 10^−2 M^−1 s^−1
k4 ([1]; pH 6.5): (1.26 ± 0.03) × 10^−2 M^−1 s^−1
k4 ([1]; pH 7.0): (9.21 ± 3.17) × 10^−3 M^−1 s^−1
k4 ([1]; pH 7.5): (5.48 ± 1.2) × 10^0 M^−1 s^−1
k4, average ([1]; binding into Trp-191 cavity of heme-ligated yCcP, average pH 4.1 to 6.5): (4.1 ± 0.6) × 10^−2 M^−1s^−1
KA2, average ([1]; binding into Trp-191 cavity, yCcP, average pH 4.1 to 6.5): 200 ± 70 M⁻¹
Apparent pKa of ionizable group affecting MIM binding affinity ([2]; Saccharomyces cerevisiae (yeast), pH 4): 5.2 ± 0.3
Increase in binding affinity on decreasing pH from 7.5 to 4.0 ([2]; yCcP): 4 fold
KAapp ([2]; yCcP, pH 4.1): 4.72 M⁻¹
KAapp ([2]; yCcP, pH 4.5): 4.37 M⁻¹
KAapp ([2]; yCcP, pH 5.0): 3.53 M⁻¹
KAapp ([2]; yCcP, pH 5.5): 2.48 M⁻¹
KAapp ([2]; yCcP, pH 6.0): 1.74 M⁻¹
KAapp ([2]; yCcP, pH 6.5): 1.40 M⁻¹
KAapp ([2]; yCcP, pH 7.0): 1.30 M⁻¹
KAapp ([2]; yCcP, pH 7.5): 1.24 M⁻¹
Kd (horse metMb): 87 mM
kfobs faster than kfobs for the imidazole/CcP reaction [3]: about 10 times
ksobs, observed rate constant of slow absorbance change ([3]; 9.07 μM rCcP, 0.992 M MIM, pH 7.0): (1.13 ± 0.06) × 10^−4 s^−1
kfobs, lower limit for initial binding ([3]; assuming 97% of reaction complete within 10 s mixing): ≥ 0.35 s⁻¹
Time for initial binding phase to be complete [3]: ≤ 10 s
Time for initial binding phase to be complete ([3]; listed as MIM): less than 10 s
KA1 as fraction of KAapp ([3]; pH 7): about 4%

O=[N+]([O-])c1c[nH]cn1 [4-Nitroimidazole, 4-nitroimidazole]
Kd (CcP(H52L)): ~30 mM
Fraction of CcP(H52L)/4NI complex formed (CcP(H52L); 4.80 mM 4NI, pH 7.0, estimate): about 14%
Affinity of CcP(H52L) higher than CcP (CcP(H52L); estimated): 7 fold
Fraction of yCcP bound to ligand at highest ligand concentration ([2]; ~5 mM 4NI, pH 7.0, estimate): about 2%
Kd [4]: ~100 mM
Fraction of rCcP bound to ligand at highest ligand concentration ([4]; ~5 mM 4NI, pH 7.0, estimate): ~ 5%
Concentration of saturated solution in aqueous buffer [5]: less than 6 mM
Kd (horse metMb): 2.5 mM

c1c[nH]cn1 [Imidazole, imidazole]
Kd [6]: 0.033 mM
Kd [7]: 0.0018 mM
Kd (cytochrome P450CAM): 0.4 mM
pKA of free imidazole [8]: 14.4
Rate constant of binding to sperm whale metMb (sperm whale metMb): 360 M⁻¹ s⁻¹
Kd (sperm whale metMb; read-out: KD, sperm whale metmyoglobin imidazole complex): 26 mM
High-affinity phase of CcP(H52L): greater affinity than yCcP (CcP(H52L)): 25 fold
Low-affinity phase of CcP(H52L) weaker than binding by yCcP (CcP(H52L)): about 3 times
Fraction of high-affinity phase, CcP(H52L) (CcP(H52L); [11]): < 46%
Fraction of low-affinity phase, CcP(H52L) (CcP(H52L); [11]): > 54%
Kd (CcP(W191G)): 0.7 mM
Kd (horse cytochrome c): 34 mM
Kd (nitric oxide synthase): 0.063 mM
Fraction of yCcP bound to ligand at highest ligand concentration ([2]; imidazole up to 4.90 M, pH 7.0): about 60%
Binding to CcP weaker than binding to metmyoglobin ([2]; pH 7): about 120 times
KDapp of rCcP complex larger than for yCcP complex ([4]; pH 7.0): about 40%
Formation of HRP/imidazole complex [9]: Only partial formation
Kd (horse metMb): 28 mM
Kd [10]: 0.029 mM
kfobs, observed rate constant of fast phase [3, 12]: (2.13 ± 0.08) × 10^−2 s^−1
ksobs, observed rate constant of slow phase [3, 12]: (2.91 ± 0.01) × 10^−4 s^−1

c1c[nH]cn1 [imidazolium ion]
Rate constant of binding to sperm whale metMb (sperm whale metMb): 127 M⁻¹ s⁻¹

Reference: publication PMC4457651 (Biochimica et biophysica acta, 2015)
